Measurements reported in ChEMBL document CHEMBL1201862, “PubChem BioAssay data set” (2004).
The source made the active and inactive calls.

Assays:
[1] = target: T1, Corticotropin-releasing factor receptor 2/Corticotropin-releasing factor-binding protein (Homo sapiens, UniProt P24387+Q13324); test: Dose Response confirmation of uHTS hits for small molecule antagonists of the CRF-binding protein and CRF-R2 receptor complex.; type: functional; conditions: read-out: IC50_Mean
T1 sequence (Q13324 whole entry): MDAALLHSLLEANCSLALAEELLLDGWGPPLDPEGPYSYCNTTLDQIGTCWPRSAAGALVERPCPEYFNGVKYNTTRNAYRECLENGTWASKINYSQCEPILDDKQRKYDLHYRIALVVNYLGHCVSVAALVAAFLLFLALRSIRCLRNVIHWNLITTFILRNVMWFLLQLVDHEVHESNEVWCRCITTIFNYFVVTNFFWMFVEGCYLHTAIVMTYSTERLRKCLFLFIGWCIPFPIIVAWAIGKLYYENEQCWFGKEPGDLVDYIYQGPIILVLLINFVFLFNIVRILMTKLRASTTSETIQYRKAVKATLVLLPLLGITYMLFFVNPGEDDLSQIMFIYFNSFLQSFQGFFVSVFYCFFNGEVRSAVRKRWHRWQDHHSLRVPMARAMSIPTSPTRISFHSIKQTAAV
T1 sequence (P24387 whole entry): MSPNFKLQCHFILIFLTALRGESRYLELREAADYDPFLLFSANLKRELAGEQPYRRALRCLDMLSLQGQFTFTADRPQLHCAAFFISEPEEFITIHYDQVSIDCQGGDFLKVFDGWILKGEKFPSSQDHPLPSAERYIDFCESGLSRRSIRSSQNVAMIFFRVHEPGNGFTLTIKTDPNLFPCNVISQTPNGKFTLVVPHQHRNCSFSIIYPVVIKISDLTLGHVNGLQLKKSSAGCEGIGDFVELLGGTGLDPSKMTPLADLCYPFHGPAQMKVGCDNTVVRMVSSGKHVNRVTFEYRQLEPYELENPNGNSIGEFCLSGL

[2] = target: T1, Corticotropin-releasing factor receptor 2/Corticotropin-releasing factor-binding protein; test: activators of CRF receptor 2 with binding protein – uHTS hits, confirmation (AID 602473); type: functional; conditions: read-out: EC50_Mean
[3] = blockers of CRF-binding protein–CRF-R2 complex – cell-based, uHTS hits, 384-well, dose response (AID 651639); type: functional, Homo sapiens; conditions: read-out: IC50_Mean
[4] = target: T2, Ubiquitin-conjugating enzyme E2 N (Homo sapiens, UniProt P61088); type: functional;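 further: Dose-response confirmation in a TR-FRET assay detecting UBC13-driven polyubiquitin chain formation, inhibition measured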
T2 sequence (P61088 whole entry): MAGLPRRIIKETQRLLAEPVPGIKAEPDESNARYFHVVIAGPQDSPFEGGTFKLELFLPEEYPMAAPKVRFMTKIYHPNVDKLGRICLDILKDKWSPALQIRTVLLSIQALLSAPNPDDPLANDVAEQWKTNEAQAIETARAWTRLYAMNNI

[5] = target: T3, DNA repair protein RAD52 homolog (Homo sapiens, UniProt P43351); type: functional, biochemical
T3 sequence (P43351 whole entry): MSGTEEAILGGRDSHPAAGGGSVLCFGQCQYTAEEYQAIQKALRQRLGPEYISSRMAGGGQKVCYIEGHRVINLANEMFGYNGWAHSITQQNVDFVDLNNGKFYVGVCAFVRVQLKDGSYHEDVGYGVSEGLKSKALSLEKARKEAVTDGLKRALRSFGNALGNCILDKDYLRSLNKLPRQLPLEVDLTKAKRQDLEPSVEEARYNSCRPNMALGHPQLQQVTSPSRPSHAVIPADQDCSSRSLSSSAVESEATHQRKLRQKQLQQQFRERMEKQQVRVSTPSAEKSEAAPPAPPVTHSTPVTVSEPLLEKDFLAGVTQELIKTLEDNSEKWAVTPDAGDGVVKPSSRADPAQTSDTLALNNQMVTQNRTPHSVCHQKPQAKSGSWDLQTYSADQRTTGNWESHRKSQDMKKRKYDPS

cells = type: functional, cell-based; conditions: HEK-CNG
Galanin receptor type 3 = target: T4, Galanin receptor type 3 (Homo sapiens, UniProt O60755); test: Fluorescence-based cell-based primary high throughput dose response assay to identify antagonists of the Galanin Receptor 3 (GalR3).; type: functional
T4 sequence (O60755 whole entry): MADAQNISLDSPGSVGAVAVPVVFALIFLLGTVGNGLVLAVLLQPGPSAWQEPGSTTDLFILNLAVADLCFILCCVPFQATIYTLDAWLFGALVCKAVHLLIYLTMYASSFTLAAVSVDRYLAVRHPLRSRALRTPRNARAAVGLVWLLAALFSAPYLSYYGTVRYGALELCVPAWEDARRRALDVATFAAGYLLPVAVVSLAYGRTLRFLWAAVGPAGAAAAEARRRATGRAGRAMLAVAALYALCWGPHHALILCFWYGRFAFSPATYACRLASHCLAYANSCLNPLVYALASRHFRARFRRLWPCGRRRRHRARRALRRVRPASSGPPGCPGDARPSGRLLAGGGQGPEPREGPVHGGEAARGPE

[6] = target: Photoreceptor-specific nuclear receptor (Homo sapiens, UniProt Q9Y5X4); type: functional, cell-based;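 further: CHO-S cells with Gal4-NCOR and VP16-NR2E3 two-hybrid luciferase reporter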
Photoreceptor-specific nuclear receptor, sequence (Q9Y5X4 whole entry, the tested form may be a part): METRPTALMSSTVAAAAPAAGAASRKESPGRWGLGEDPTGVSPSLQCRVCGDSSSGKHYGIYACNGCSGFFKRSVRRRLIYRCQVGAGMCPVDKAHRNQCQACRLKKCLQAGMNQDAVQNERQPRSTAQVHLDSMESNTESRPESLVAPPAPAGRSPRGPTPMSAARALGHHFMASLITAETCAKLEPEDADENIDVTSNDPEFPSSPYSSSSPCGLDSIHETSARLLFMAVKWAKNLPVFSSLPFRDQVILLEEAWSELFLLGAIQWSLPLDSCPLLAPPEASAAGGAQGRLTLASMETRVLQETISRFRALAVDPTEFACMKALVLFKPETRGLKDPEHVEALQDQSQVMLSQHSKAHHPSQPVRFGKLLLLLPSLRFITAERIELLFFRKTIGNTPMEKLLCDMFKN

[7] = target: T5, Carboxy-terminal domain RNA polymerase II polypeptide A small phosphatase 1 (Homo sapiens, UniProt Q9GZU7); test: CTDSP1 inhibitors, concentration-response, biochemical, absorbance readout, ultra-high-throughput screen actives (AID 540297); type: functional
T5 sequence (Q9GZU7 whole entry): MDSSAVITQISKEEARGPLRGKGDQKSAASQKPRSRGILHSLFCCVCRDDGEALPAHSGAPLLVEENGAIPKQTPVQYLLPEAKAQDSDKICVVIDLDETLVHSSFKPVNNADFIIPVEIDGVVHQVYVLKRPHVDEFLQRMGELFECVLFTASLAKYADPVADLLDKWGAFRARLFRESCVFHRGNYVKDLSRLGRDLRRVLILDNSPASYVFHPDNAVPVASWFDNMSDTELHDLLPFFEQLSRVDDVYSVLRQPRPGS

[8] = loss of viability in HepG2 cells – cell-based, CellTiter-Glo, cherry-picked, cytotoxicity control for Shn3 inhibitor project, dose response (AID 624134); type: functional
[9] = Luminescence Cell-Based Dose Retest to Confirm Inhibitors of Cancer Stem Cells. [Related pubchem assays (depositor defined):AID2717, AID2721]; type: functional; conditions: Homo sapiens
Nonstructural protein 1 = Nonstructural protein 1 (Influenza A virus, UniProt Q194T2); type: functional, Influenza A virus (A/California/07/2009(H1N1))
Nonstructural protein 1, sequence (Q194T2 whole entry): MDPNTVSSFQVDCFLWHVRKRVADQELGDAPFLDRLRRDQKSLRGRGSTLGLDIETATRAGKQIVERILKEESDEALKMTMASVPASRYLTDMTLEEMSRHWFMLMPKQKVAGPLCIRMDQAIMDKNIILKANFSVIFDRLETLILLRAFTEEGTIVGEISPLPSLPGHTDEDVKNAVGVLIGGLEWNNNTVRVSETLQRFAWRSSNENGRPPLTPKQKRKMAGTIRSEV

[10] = reduction of Shn3 3'UTR-driven luciferase in osteoblasts – cell-based, Clone20 osteoblasts, firefly luciferase, cherry-picked, dose response (AID 624132); type: functional;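 further: firefly luciferase luminescence from reporter carrying the Shn3 3'UTR in osteoblasts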
INS1 = test: INS-1E survival protection against cytokine death – cell-based, luminescence, retest, dose response (AID 449756); type: functional; conditions: Rattus norvegicus;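 further: cell death triggered by IL-1 beta plus TNF-alpha plus IFN-gamma mixture; protective hits raise ATP signal compared with cytokine alone wells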
[11] = non-specific 3'UTR reporter inhibition in Clone20-Shn3RL – cell-based, Renilla luciferase, cherry-picked, counter-screen for Shn3 inhibitor project, dose response (AID 624133); type: functional

Fc1ccccc1CSc1nnnn1-c1ccc2c(c1)OCO2
IC50 [1]: 15.6 µM (active)
EC50 [2]: > 53 µM (inactive)
IC50 [3]: > 20 µM (inactive)

CN(C(=O)Oc1ccc(C(=O)c2ccc(Cl)cc2)cc1)c1ccccc1
IC50 [1]: < 0.368 µM (active)
EC50 [2]: > 53 µM (inactive)
IC50 [3]: > 20 µM (inactive)

CCOc1ccc(-n2c(SCC(=O)NCc3ccco3)nc3c4ccccc4nc-3c2O)cc1
IC50 [1]: 3.76 µM (active)
EC50 [2]: > 53 µM (inactive)
IC50 [3]: 15 µM (active)

CC[C@@H](C)[C@@H]1CN([C@@H](CN2CCC[C@H]2CN2C(N)=NC[C@H]2CC(C)C)C(C)C)C(=N)N1CCc1ccc(Cl)c(Cl)c1
IC50 [4]: > 20 µM (inactive)
IC50 [1]: 2.82 µM (active)
EC50 [2]: 42.3 µM (active)
AC50 [5]: 17.3 µM (active)
IC50 [3]: 7.1 µM (active)

CSc1ccc(C(=O)C2CCCN(C(=O)CCc3c(C)nn(C)c3C)C2)cc1 (stereo unspecified)
EC50 (cells): > 29.9 µM (inactive)
IC50 (Galanin receptor type 3): 1.15 µM (active)

COCCCNC(=S)N1CCN(c2nc(-c3ccc(Cl)cc3)cs2)CC1
IC50 [6]: 4.25 µM (active)

O=C(O)C1OC1(c1ccccc1Cl)c1ccccc1Cl (stereo unspecified)
IC50 [1]: 23.4 µM (active)
EC50 [2]: > 53 µM (inactive)
IC50 [3]: > 20 µM (inactive)

COc1ccc(C)cc1NC(=O)NC1CC(=O)N(c2ccc3c(c2)OCCO3)C1 (stereo unspecified)
IC50 [6]: 3.25 µM (active)

CCOC(=O)c1cc2c(=O)n3cccc(C)c3nc2n(Cc2ccco2)/c1=N/C(=O)c1cccnc1
IC50 [7]: 18.8 µM (active)

FC(F)(F)c1ccccc1Cc1c(-c2ccco2)nc2c3ccccc3ccn12
EC50 (cells): > 29.9 µM (inactive)
IC50 (Galanin receptor type 3): 13 µM (inactive)

Clc1cc2cccnc2c2ncccc12
AC50 [8]: 5.34 µM (active)
AC50 [9]: 4.73 µM (active)
IC50 (Nonstructural protein 1): 3.44 µM (active)
AC50 [10]: 4.06 µM (active)
AC50 (INS1): 6.84 µM (active)
IC50 [6]: 5.53 µM (active)
AC50 [11]: 3.94 µM (active)
